Test results: publication PMC9578396, “Intrinsic Antibacterial Activity of Xeruborbactam In Vitro: Assessing Spectrum and Mode of Action” (Antimicrobial Agents and Chemotherapy, 2022)
In brackets after ≈: the same amount, converted by molar mass. Read-outs that look alike come from different tables or passages of the source.

Assays:
Staphylococcus aureus = experiment: MIC, Staphylococcus aureus (MSSA, MRSA); format: cell-based; details: for MIC: read-out: MIC
Excerpt: (§1) Bacterial isolates were subjected to broth microdilution susceptibility testing, performed according to Clinical and Laboratory Standards Institute (CLSI) methods ([46]), using panels prepared in-house. Meropenem was purchased from Sandoz, and all other antibiotics were from Sigma-Aldrich. Xeruborbactam was synthesized at Qpex Biopharma, San Diego, CA. Avibactam was purchased from eNovation Chemicals LLC, Bridgewater, NJ, USA; zidebactam was from MedKoo Biosciences, Inc., Morrisville, NC, and nacubactam was from Advanced ChemBlocks, Hayward, CA. Durlobactam was synthesized at Acme Bioscience, Palo Alto, CA, USA.

Enterococcus faecalis = experiment: MIC, Enterococcus faecalis; format: cell-based
Excerpt: as §1

PBP1a [1] = target: PBP1a (Klebsiella pneumoniae, UniProt A0A0H3GZF1); experiment: Gel-based Bocillin FL competition PBP binding assay; details: K. pneumoniae KPM1001 membranes; Bocillin FL step 0°C for xeruborbactam, 30°C for beta-lactams; read-out: Relative binding IC50, PBP1a
Experimental: (§2) Ten milliliters of overnight bacterial culture was inoculated in 1 L of LB medium and grown to an OD600 of 0.7 to 0.9. The cell pellet was washed once with 50 mL of solution containing 100 mM Na-phosphate at pH 7.0 and 100 mM NaCl and resuspended in 10 mL of the same buffer with one tablet of EDTA-free mini-protease inhibitor and 10 mg of lysozyme. Cell suspensions were incubated for 45 min at 37°C, and then 200 μL of DNase I was added along with MgSO4 (to a final concentration of 10 mM), followed by three cycles of freeze-thawing (10 min and 20 min, respectively). Four cycles of sonication at maximum power were performed next, each cycle lasting for 30 s with 1 min on ice between cycles. The cell suspension was centrifuged at 12,000 × g for 10 min at 4°C. The supernatant was collected and centrifuged at 100,000 × g for 45 min at 4°C. The pellet was washed three times with 10 mL of 100 mM Na-phosphate, pH 7.0, by resuspension and subsequent centrifugation at 100,000 × g for 10 min at 4°C. The pellet was finally resuspended in 1.5 mL of 100 mM Na-phosphate, pH 7.0, and passed several times through a Dounce homogenizer (tight pestle). Membrane preparations were aliquoted and kept at −80°C.
(§3) Five microliters of total bacterial membrane preparation was mixed with 5 μL of a test compound at a desired concentration in 100 mM Na-phosphate buffer, pH 7.0. Incubation of bacterial membrane preparations with control beta-lactams was performed for 10 min at 30°C; xeruborbactam was incubated with membrane preparations for 1 h at 30°C. Five microliters of 150 μM Bocillin FL fluorescent probe (Thermo Fisher Scientific) was added, and the reaction mixture was incubated for an additional 10 min at 30°C in the case of beta-lactams or for 20 min on ice (0°C) in the case of xeruborbactam. We believe that the 0°C temperature is required to prevent displacement of xeruborbactam from its complex by the Bocillin probe. At the end of the incubation step, 15 μL of 2× SDS sample loading buffer was added, and the reaction mixture was incubated for 5 min at 95°C. Twenty-five microliters of the reaction mixture was then loaded on an 8% SDS Tris-glycine gel (Thermo Fisher Scientific). At the end of the run, the gel was briefly rinsed with water and fixed in 10% acetic acid, 40% methanol for 20 min. After an additional wash in water for 30 min, the gel was scanned on a Typhoon Trio+ Imager using a blue laser filter (excitation, 488 nm, and emission, 520 nm). Densitometry of the gel images was performed using ImageQuant software (Molecular Dynamics). IC50 values were calculated with Prism software (GraphPad).

PBP2 = PBP2 (Klebsiella pneumoniae, UniProt A6T696); experiment: as above; details: K. pneumoniae KPM1001 membranes; Bocillin FL step 0°C for xeruborbactam, 30°C for beta-lactams; read-out: Relative binding IC50, PBP2
Experimental: as §2, §3

PBP1a [2] = target: PBP1a (Acinetobacter baumannii, UniProt A0ABX6CK30); experiment: as above; details: A. baumannii ACM1320 membranes; Bocillin FL step 0°C for xeruborbactam, 30°C for beta-lactams; read-out: Relative binding IC50, PBP1a
Experimental: as §2, §3

PBP1a [3] = target: T1, PBP1a (Escherichia coli, UniProt P02918); experiment: as above; details: E. coli ECM5497 membranes; Bocillin FL step 0°C for xeruborbactam, 30°C for beta-lactams; read-out: Relative binding IC50, PBP1a
T1 construct: endogenous in cells; host or cells: Escherichia coli ECM5497 (MG1655), total membrane preparation
Experimental: as §2, §3

PBP1b = target: T2, PBP1b (Escherichia coli, UniProt P02919); experiment: as above; details: E. coli ECM5497 membranes; Bocillin FL step 0°C for xeruborbactam, 30°C for beta-lactams; read-out: Relative binding IC50, PBP1b
T2 construct: endogenous in cells; host or cells: Escherichia coli ECM5497 (MG1655), total membrane preparation
Experimental: as §2, §3

PBP3 [4] = target: PBP3 (Klebsiella pneumoniae, UniProt A0A0H3GN85); experiment: as above; details: K. pneumoniae KPM1001 membranes; Bocillin FL step 0°C for xeruborbactam, 30°C for beta-lactams; read-out: Relative binding IC50, PBP3
Experimental: as §2, §3

PBP3 [5] = target: PBP3 (Acinetobacter baumannii, UniProt A0ABX6CK25); experiment: as above; details: A. baumannii ACM1320 membranes; Bocillin FL step 0°C for xeruborbactam, 30°C for beta-lactams; read-out: Relative binding IC50, PBP3
Experimental: as §2, §3

[6] = Staphylococcus aureus, MSSA, n = 12

Sequence of PBP3 (Klebsiella pneumoniae, UniProt A0A0H3GN85) (A0A0H3GN85 entry or part of it): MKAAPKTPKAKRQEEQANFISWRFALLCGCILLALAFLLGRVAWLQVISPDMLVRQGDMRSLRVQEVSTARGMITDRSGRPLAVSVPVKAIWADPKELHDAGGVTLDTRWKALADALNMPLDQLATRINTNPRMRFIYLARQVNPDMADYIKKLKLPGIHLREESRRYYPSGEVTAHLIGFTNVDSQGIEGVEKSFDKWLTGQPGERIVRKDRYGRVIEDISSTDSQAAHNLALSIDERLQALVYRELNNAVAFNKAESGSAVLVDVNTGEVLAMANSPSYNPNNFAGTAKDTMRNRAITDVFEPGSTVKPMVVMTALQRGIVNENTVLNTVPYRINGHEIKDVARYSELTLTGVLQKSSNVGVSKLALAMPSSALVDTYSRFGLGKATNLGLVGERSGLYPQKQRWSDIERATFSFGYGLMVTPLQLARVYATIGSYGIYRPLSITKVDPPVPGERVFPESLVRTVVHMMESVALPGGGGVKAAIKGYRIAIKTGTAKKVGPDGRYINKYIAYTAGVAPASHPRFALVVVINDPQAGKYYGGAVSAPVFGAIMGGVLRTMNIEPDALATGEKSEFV
T1 sequence (P02918 whole entry): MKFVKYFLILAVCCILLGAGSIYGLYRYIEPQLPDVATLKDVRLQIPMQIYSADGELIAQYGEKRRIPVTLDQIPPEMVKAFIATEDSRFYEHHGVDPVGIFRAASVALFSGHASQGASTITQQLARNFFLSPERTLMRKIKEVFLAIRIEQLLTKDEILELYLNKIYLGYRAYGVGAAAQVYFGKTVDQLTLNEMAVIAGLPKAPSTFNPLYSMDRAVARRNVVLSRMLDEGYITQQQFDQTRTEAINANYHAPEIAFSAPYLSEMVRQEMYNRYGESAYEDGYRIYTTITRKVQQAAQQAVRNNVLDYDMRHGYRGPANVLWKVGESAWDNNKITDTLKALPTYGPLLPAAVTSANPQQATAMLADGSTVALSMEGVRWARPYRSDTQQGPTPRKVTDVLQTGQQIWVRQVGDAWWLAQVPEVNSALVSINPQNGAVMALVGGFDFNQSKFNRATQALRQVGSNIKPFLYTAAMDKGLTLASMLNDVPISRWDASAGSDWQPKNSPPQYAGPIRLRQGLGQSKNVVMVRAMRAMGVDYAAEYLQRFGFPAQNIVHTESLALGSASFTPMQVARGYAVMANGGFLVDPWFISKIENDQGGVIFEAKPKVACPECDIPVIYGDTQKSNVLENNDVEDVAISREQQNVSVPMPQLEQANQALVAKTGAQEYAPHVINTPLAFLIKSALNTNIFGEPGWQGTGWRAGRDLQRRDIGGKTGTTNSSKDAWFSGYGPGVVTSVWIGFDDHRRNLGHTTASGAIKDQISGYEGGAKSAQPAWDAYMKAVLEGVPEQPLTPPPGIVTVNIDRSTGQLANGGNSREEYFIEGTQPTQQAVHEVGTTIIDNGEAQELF
Sequence of PBP1a (Acinetobacter baumannii, UniProt A0ABX6CK30) (A0ABX6CK30 entry or part of it): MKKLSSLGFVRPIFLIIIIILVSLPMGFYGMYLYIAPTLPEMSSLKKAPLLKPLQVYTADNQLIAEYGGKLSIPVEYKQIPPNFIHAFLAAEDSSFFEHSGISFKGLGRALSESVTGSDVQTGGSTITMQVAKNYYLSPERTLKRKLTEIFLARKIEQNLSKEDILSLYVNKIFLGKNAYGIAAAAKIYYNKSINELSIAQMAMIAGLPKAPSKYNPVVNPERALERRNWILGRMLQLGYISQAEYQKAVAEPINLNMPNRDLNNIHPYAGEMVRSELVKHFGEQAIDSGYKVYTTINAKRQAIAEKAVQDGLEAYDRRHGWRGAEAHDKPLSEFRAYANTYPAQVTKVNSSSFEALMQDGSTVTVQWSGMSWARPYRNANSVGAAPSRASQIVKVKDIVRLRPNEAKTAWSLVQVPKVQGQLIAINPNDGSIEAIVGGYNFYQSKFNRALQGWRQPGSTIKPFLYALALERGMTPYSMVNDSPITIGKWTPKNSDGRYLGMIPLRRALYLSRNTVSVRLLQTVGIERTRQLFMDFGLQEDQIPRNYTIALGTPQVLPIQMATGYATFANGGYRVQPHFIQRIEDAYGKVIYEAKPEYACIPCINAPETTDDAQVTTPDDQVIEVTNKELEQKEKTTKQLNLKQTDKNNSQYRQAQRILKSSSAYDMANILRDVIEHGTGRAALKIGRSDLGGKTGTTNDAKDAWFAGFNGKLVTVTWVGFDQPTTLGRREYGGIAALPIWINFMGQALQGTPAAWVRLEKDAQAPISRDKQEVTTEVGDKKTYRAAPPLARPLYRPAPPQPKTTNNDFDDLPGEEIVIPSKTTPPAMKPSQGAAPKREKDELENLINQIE
Sequence of PBP3 (Acinetobacter baumannii, UniProt A0ABX6CK25) (A0ABX6CK25 entry or part of it): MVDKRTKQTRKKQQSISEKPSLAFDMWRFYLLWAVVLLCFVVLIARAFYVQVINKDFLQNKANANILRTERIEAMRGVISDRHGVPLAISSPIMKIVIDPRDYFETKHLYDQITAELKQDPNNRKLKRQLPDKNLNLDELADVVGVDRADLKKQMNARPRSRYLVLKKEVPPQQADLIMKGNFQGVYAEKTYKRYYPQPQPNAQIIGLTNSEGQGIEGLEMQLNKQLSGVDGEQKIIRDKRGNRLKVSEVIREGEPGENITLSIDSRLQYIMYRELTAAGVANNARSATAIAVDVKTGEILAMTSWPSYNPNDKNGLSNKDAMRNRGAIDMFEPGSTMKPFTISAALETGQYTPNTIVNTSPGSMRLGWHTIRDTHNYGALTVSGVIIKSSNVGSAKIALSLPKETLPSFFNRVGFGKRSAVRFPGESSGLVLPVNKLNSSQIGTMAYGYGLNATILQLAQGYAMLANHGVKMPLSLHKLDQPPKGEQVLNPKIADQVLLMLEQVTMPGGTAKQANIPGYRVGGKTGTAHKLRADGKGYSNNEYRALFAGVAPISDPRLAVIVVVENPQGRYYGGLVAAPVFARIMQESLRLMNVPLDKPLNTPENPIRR
T2 sequence (P02919 whole entry): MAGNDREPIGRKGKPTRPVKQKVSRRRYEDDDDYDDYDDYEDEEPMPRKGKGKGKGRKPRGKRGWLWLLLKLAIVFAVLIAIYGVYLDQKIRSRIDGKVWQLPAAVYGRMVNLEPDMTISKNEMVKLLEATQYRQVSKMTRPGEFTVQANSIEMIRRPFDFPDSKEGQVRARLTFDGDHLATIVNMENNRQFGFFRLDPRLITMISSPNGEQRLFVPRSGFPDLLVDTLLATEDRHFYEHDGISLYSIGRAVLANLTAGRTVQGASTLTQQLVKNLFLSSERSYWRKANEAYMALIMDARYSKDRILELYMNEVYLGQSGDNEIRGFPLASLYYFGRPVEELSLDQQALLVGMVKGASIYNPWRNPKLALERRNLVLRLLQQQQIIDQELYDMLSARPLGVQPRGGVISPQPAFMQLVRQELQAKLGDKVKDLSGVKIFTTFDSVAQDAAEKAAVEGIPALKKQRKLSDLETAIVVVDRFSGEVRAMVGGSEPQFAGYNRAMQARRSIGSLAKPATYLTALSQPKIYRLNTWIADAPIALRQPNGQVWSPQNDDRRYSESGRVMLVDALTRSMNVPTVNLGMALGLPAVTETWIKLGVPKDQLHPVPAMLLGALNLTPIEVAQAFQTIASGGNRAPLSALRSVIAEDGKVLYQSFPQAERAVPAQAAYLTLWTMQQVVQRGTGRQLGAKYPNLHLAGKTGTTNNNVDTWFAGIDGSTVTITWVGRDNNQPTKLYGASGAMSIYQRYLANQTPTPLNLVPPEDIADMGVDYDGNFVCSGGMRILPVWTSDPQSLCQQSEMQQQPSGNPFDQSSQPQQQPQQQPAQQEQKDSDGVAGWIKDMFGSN
Sequence of PBP2 (A6T696 entry or part of it): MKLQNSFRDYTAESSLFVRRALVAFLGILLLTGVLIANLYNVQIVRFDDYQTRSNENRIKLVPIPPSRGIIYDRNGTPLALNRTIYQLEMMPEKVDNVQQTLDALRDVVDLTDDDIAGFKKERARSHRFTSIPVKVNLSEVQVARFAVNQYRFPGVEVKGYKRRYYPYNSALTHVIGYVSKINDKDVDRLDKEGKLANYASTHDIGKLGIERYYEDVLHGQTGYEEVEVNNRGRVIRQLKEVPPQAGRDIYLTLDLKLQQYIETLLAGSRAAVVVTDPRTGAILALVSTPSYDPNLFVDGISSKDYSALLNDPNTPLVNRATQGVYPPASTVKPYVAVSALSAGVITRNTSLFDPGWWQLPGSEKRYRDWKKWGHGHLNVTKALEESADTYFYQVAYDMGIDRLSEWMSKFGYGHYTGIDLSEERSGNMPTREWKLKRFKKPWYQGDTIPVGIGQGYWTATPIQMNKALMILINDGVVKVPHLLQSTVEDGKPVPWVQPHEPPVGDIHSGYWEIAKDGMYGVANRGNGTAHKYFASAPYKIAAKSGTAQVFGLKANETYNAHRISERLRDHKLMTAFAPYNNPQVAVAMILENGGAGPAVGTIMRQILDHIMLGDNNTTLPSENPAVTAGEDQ

O=C(O)c1c(F)ccc2c1OB(O)[C@@H]1C[C@H]21 [Xeruborbactam]
MIC range (Staphylococcus aureus; MSSA, n = 12): 4 to 8 µg/mL | MIC (Staphylococcus aureus; Staphylococcus aureus, ATCC 29213 / MSSA, ATCC 29213, MSSA): 4 µg/mL (≈ 18 µM) | MIC (Staphylococcus aureus; Staphylococcus aureus, MRSA, all the MRSA strains, n = 13): > 32 µg/mL | MIC (Staphylococcus aureus; Staphylococcus aureus, MRSA, sa001, MRSA): > 32 µg/mL | MIC (Staphylococcus aureus; Staphylococcus aureus, MRSA, sa010, MRSA): > 32 µg/mL | MIC (Staphylococcus aureus; Staphylococcus aureus, MRSA, sa013, MRSA): > 32 µg/mL | MIC (Staphylococcus aureus; Staphylococcus aureus, MRSA, sa014, MRSA): > 32 µg/mL | MIC (Staphylococcus aureus; Staphylococcus aureus, MRSA, sa148, MRSA): > 32 µg/mL | MIC (Staphylococcus aureus; Staphylococcus aureus, MRSA, sa150, MRSA): > 32 µg/mL | MIC (Staphylococcus aureus; Staphylococcus aureus, MRSA, sa151, MRSA): > 32 µg/mL | MIC (Staphylococcus aureus; Staphylococcus aureus, MRSA, sa152, MRSA): > 32 µg/mL | MIC (Staphylococcus aureus; Staphylococcus aureus, MRSA, sa153, MRSA): > 32 µg/mL | MIC (Staphylococcus aureus; Staphylococcus aureus, MRSA, sa278, MRSA): > 32 µg/mL | MIC (Staphylococcus aureus; Staphylococcus aureus, MRSA, sa279, MRSA): > 32 µg/mL | MIC (Staphylococcus aureus; Staphylococcus aureus, MRSA, sa280, MRSA): > 32 µg/mL | MIC (Staphylococcus aureus; Staphylococcus aureus, MRSA, sa281, MRSA): > 32 µg/mL | MIC (Staphylococcus aureus; Staphylococcus aureus, MSSA, sa002, MSSA): 8 µg/mL (≈ 36 µM) | MIC (Staphylococcus aureus; Staphylococcus aureus, MSSA, sa003, MSSA): 8 µg/mL (≈ 36 µM) | MIC (Staphylococcus aureus; Staphylococcus aureus, MSSA, sa004, MSSA): 8 µg/mL (≈ 36 µM) | MIC (Staphylococcus aureus; Staphylococcus aureus, MSSA, sa005, MSSA): 8 µg/mL (≈ 36 µM) | MIC (Staphylococcus aureus; Staphylococcus aureus, MSSA, sa006, MSSA): 8 µg/mL (≈ 36 µM) | MIC (Staphylococcus aureus; Staphylococcus aureus, MSSA, sa007, MSSA): 8 µg/mL (≈ 36 µM) | MIC (Staphylococcus aureus; Staphylococcus aureus, MSSA, sa008, MSSA): 8 µg/mL (≈ 36 µM) | MIC (Staphylococcus aureus; Staphylococcus aureus, MSSA, sa009, MSSA): 8 µg/mL (≈ 36 µM) | MIC (Staphylococcus aureus; Staphylococcus aureus, MSSA, sa011, MSSA): 8 µg/mL (≈ 36 µM) | MIC (Staphylococcus aureus; Staphylococcus aureus, MSSA, sa012, MSSA): 8 µg/mL (≈ 36 µM) | MIC (Staphylococcus aureus; Staphylococcus aureus, MSSA, sa015, MSSA): 8 µg/mL (≈ 36 µM) | MIC50 (Staphylococcus aureus; [6]): 8 µg/mL (≈ 36 µM) | MIC90 (Staphylococcus aureus; [6]): 8 µg/mL (≈ 36 µM) | MIC (Enterococcus faecalis; all the E. faecalis strains, n = 16): > 32 µg/mL | MIC (Enterococcus faecalis; efs003): > 32 µg/mL | MIC (Enterococcus faecalis; efs004): > 32 µg/mL | MIC (Enterococcus faecalis; efs005): > 32 µg/mL | MIC (Enterococcus faecalis; efs006): > 32 µg/mL | MIC (Enterococcus faecalis; efs007): > 32 µg/mL | MIC (Enterococcus faecalis; efs026): > 32 µg/mL | MIC (Enterococcus faecalis; efs071): > 32 µg/mL | MIC (Enterococcus faecalis; efs072): > 32 µg/mL | MIC (Enterococcus faecalis; efs073): > 32 µg/mL | MIC (Enterococcus faecalis; efs090): > 32 µg/mL | MIC (Enterococcus faecalis; efs091): > 32 µg/mL | MIC (Enterococcus faecalis; efs092): > 32 µg/mL | MIC (Enterococcus faecalis; efs093): > 32 µg/mL | MIC (Enterococcus faecalis; efs094): > 32 µg/mL | MIC (Enterococcus faecalis; efs095): > 32 µg/mL | MIC (Enterococcus faecalis; efs096): > 32 µg/mL | IC50 (PBP1a [1]): 41 ± 6 µM | IC50 (PBP2): 51 ± 15 µM | IC50 (PBP1a [2]): 1.4 ± 0.5 µM | IC50 (PBP1a [3]): 47 ± 13 µM | IC50 (PBP1b): 56 ± 18 µM | IC50 (PBP3 [4]): 55 ± 8 µM | IC50 (PBP3 [5]): 135 ± 40 µM
